Data from ChEMBL document CHEMBL3217497, “Design, synthesis and antiproliferative activity of indole analogues of indanocine” (2013).

How the values were obtained:
Type in all cases: functional
[1] = Cytotoxicity against human UO31 cells assessed as growth inhibition; settings: UO-31
NCI-H460 = experiment: Cytotoxicity against human NCI-H460 cells assessed as growth inhibition
MDA-MB-435 = experiment: Cytotoxicity against human MDA-MB-435 cells assessed as growth inhibition
COLO 205 = experiment: Cytotoxicity against human COLO205 cells assessed as growth inhibition
ACHN = experiment: Cytotoxicity against human ACHN cells assessed as growth inhibition
MDA-MB-231 = experiment: Cytotoxicity against human MDA-MB-231 cells assessed as growth inhibition
BT-549 = experiment: Cytotoxicity against human BT549 cells assessed as growth inhibition
M14 = experiment: Cytotoxicity against human M14 cells assessed as growth inhibition
[2] = Cytotoxicity against human UACC257 cells assessed as growth inhibition; settings: UACC-257
HOP-62 = experiment: Cytotoxicity against human HOP62 cells assessed as growth inhibition
NCI-H23 = experiment: Cytotoxicity against human NCI-H23 cells assessed as growth inhibition
RPMI-8226 = experiment: Cytotoxicity against human RPMI8226 cells assessed as growth inhibition
SNB-19 = experiment: Cytotoxicity against human SNB19 cells assessed as growth inhibition
[3] = Cytotoxicity against human EKVX cells assessed as growth inhibition
MOLT-4 = experiment: Cytotoxicity against human MOLT4 cells assessed as growth inhibition
[4] = Cytotoxicity against human OVCAR4 cells assessed as growth inhibition; settings: OVCAR-4
[5] = Cytotoxicity against human HCT15 cells assessed as growth inhibition; settings: HCT-15
[6] = Cytotoxicity against human OVCAR3 cells assessed as growth inhibition; settings: OVCAR-3
[7] = Cytotoxicity against human NCI-ADR-RES cells assessed as growth inhibition
T47D = experiment: Cytotoxicity against human T47D cells assessed as growth inhibition
RXF 393 = experiment: Cytotoxicity against human RXF393 cells assessed as growth inhibition
PC-3 = experiment: Cytotoxicity against human PC3 cells assessed as growth inhibition
SF-268 = experiment: Cytotoxicity against human SF268 cells assessed as growth inhibition
LOX IMVI = experiment: Cytotoxicity against human LOXIMVI cells assessed as growth inhibition
786-0 = experiment: Cytotoxicity against human 786-0 cells assessed as growth inhibition
A549 = experiment: Cytotoxicity against human A549 cells assessed as growth inhibition
CAKI-1 = experiment: Cytotoxicity against human CAKI-1 cells assessed as growth inhibition
HOP-92 = experiment: Cytotoxicity against human HOP92 cells assessed as growth inhibition
MCF7 = experiment: Cytotoxicity against human MCF7 cells assessed as growth inhibition
IGROV-1 = experiment: Cytotoxicity against human IGROV1 cells assessed as growth inhibition
[8] = Cytotoxicity against human UACC62 cells assessed as growth inhibition; settings: UACC-62
NCI-H226 = experiment: Cytotoxicity against human NCI-H226 cells assessed as growth inhibition
NCI-H522 = experiment: Cytotoxicity against human NCI-H522 cells assessed as growth inhibition
SK-MEL-5 = experiment: Cytotoxicity against human SK-MEL-5 cells assessed as growth inhibition
SK-MEL-2 = experiment: Cytotoxicity against human SK-MEL-2 cells assessed as growth inhibition
HCC 2998 = experiment: Cytotoxicity against human HCC2998 cells assessed as growth inhibition
U-251 = experiment: Cytotoxicity against human U251 cells assessed as growth inhibition
[9] = Cytotoxicity against human OVCAR8 cells assessed as growth inhibition; settings: OVCAR-8
[10] = Cytotoxicity against human OVCAR5 cells assessed as growth inhibition; settings: OVCAR-5
HT-29 = experiment: Cytotoxicity against human HT-29 cells assessed as growth inhibition
SF-295 = experiment: Cytotoxicity against human SF295 cells assessed as growth inhibition
SN12C = experiment: Cytotoxicity against human SN12C cells assessed as growth inhibition
SW-620 = experiment: Cytotoxicity against human SW620 cells assessed as growth inhibition
SK-OV-3 = experiment: Cytotoxicity against human SKOV3 cells assessed as growth inhibition
CCRF-CEM = experiment: Cytotoxicity against human CCRF-CEM cells assessed as growth inhibition
KM12 = experiment: Cytotoxicity against human KM12 cells assessed as growth inhibition
K562 = experiment: Cytotoxicity against human K562 cells assessed as growth inhibition
TK-10 = experiment: Cytotoxicity against human TK10 cells assessed as growth inhibition
SK-MEL-28 = experiment: Cytotoxicity against human SK-MEL-28 cells assessed as growth inhibition
SF-539 = experiment: Cytotoxicity against human SF539 cells assessed as growth inhibition
A498 = experiment: Cytotoxicity against human A498 cells assessed as growth inhibition
NCI-H322M = experiment: Cytotoxicity against human NCI-H322M cells assessed as growth inhibition
HL-60(TB) = experiment: Cytotoxicity against human HL-60(TB) cells assessed as growth inhibition
DU-145 = experiment: Cytotoxicity against human DU145 cells assessed as growth inhibition
SR = experiment: Cytotoxicity against human SR cells assessed as growth inhibition
HCT-116 = experiment: Cytotoxicity against human HCT116 cells assessed as growth inhibition
Malme-3M = experiment: Cytotoxicity against human MALME-3M cells assessed as growth inhibition
MDA-MB-468 = experiment: Cytotoxicity against human MDA-MB-468 cells assessed as growth inhibition
SNB-75 = experiment: Cytotoxicity against human SNB75 cells assessed as growth inhibition
[11] = Cytotoxicity against human Hs 578T cells assessed as growth inhibition

SMILES: COc1cc2c(c(N)c1OC)C(=O)/C(=C\c1cc(C)c(O)c(C)c1)C2 [INDANOCINE]
- GI50 [1]: 80 nM
- GI50 (NCI-H460): 10 nM
- GI50 (MDA-MB-435): 10 nM
- GI50 (COLO 205): 5010 nM
- GI50 (ACHN): 60 nM
- GI50 (MDA-MB-231): 10 nM
- GI50 (BT-549): 10000 nM
- GI50 (M14): 10 nM
- GI50 [2]: 100000 nM
- GI50 (HOP-62): 20 nM
- GI50 (NCI-H23): 10 nM
- GI50 (RPMI-8226): 10 nM
- GI50 (SNB-19): 10 nM
- GI50 [3]: 10 nM
- GI50 (MOLT-4): 10 nM
- GI50 [4]: 7940 nM
- GI50 [5]: 10 nM
- GI50 [6]: 10 nM
- GI50 [7]: 10 nM
- GI50 (T47D): 100000 nM
- GI50 (RXF 393): 30 nM
- GI50 (PC-3): 10 nM
- GI50 (SF-268): 10 nM
- GI50 (LOX IMVI): 10 nM
- GI50 (786-0): 10 nM
- GI50 (A549): 10 nM
- GI50 (CAKI-1): 3980 nM
- GI50 (HOP-92): 100000 nM
- GI50 (MCF7): 10 nM
- GI50 (IGROV-1): 40 nM
- GI50 [8]: 10 nM
- GI50 (NCI-H226): 3980 nM
- GI50 (NCI-H522): 10 nM
- GI50 (SK-MEL-5): 10 nM
- GI50 (SK-MEL-2): 1000 nM
- GI50 (HCC 2998): 2000 nM
- GI50 (U-251): 20 nM
- GI50 [9]: 10 nM
- GI50 [10]: 630 nM
- GI50 (HT-29): 2510 nM
- GI50 (SF-295): 60 nM
- GI50 (SN12C): 10 nM
- GI50 (SW-620): 10 nM
- GI50 (SK-OV-3): 10 nM
- GI50 (CCRF-CEM): 10 nM
- GI50 (KM12): 10 nM
- GI50 (K562): 10 nM
- GI50 (TK-10): 79400 nM
- GI50 (SK-MEL-28): 1000 nM
- GI50 (SF-539): 10 nM
- GI50 (A498): 7940 nM
- GI50 (NCI-H322M): 10 nM
- GI50 (HL-60(TB)): 10 nM
- GI50 (DU-145): 10 nM
- GI50 (SR): 10 nM
- GI50 (HCT-116): 10 nM

SMILES: Cc1cc(/C=C2\CCc3c(n(C)c4ccccc34)C2=O)cc(C)c1O
- GI50 [1]: 730 nM
- GI50 (NCI-H460): 390 nM
- GI50 (MDA-MB-435): 160 nM
- GI50 (Malme-3M): 450 nM
- GI50 (COLO 205): 22900 nM
- GI50 (ACHN): 830 nM
- GI50 (MDA-MB-231): 1060 nM
- GI50 (BT-549): 2840 nM
- GI50 (M14): 390 nM
- GI50 [2]: 5830 nM
- GI50 (HOP-62): 720 nM
- GI50 (NCI-H23): 2530 nM
- GI50 (RPMI-8226): 760 nM
- GI50 (SNB-19): 630 nM
- GI50 [3]: 4840 nM
- GI50 (MOLT-4): 800 nM
- GI50 (MDA-MB-468): 310 nM
- GI50 [4]: 3870 nM
- GI50 [5]: 510 nM
- GI50 [6]: 350 nM
- GI50 [7]: 340 nM
- GI50 (T47D): 2060 nM
- GI50 (RXF 393): 1080 nM
- GI50 (SNB-75): 410 nM
- GI50 (PC-3): 2490 nM
- GI50 (SF-268): 720 nM
- GI50 (LOX IMVI): 700 nM
- GI50 (786-0): 3250 nM
- GI50 (A549): 740 nM
- GI50 (CAKI-1): 840 nM
- GI50 (HOP-92): 6560 nM
- GI50 (MCF7): 370 nM
- GI50 (IGROV-1): 1590 nM
- GI50 [8]: 410 nM
- GI50 (NCI-H226): 4380 nM
- GI50 (NCI-H522): 140 nM
- GI50 (SK-MEL-5): 410 nM
- GI50 (SK-MEL-2): 330 nM
- GI50 (HCC 2998): 3610 nM
- GI50 (U-251): 540 nM
- GI50 [9]: 920 nM
- GI50 [10]: 5100 nM
- GI50 [11]: 730 nM
- GI50 (HT-29): 4180 nM
- GI50 (SF-295): 1480 nM
- GI50 (SN12C): 720 nM
- GI50 (SW-620): 430 nM
- GI50 (SK-OV-3): 1520 nM
- GI50 (CCRF-CEM): 740 nM
- GI50 (KM12): 450 nM
- GI50 (K562): 330 nM
- GI50 (TK-10): 1080 nM
- GI50 (SK-MEL-28): 640 nM
- GI50 (SF-539): 700 nM
- GI50 (A498): 3390 nM
- GI50 (NCI-H322M): 2730 nM
- GI50 (HL-60(TB)): 340 nM
- GI50 (DU-145): 1850 nM
- GI50 (SR): 340 nM
- GI50 (HCT-116): 390 nM
